In experiment [1] the test system is asymmetric di-methyl PABP1 in RKO cells. In words: RKO methylation assay (In Cell Western for asymmetric di-methyl PABP1). The format is cell-based. As to conditions: Homo sapiens, 48 hours incubation, read-out: Cellular IC50. A digest of the protocol:
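RKO cells treated 48 h at 37 °C, then fixed, methanol-permeabilized and probed for asymmetric di-methyl PABP1 (16 h, 4 °C) with DRAQ5 counterstain; 800/700 nm intensity ratio read.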

For the next experiment, the target named is T1, Human CARM1 (PRMT4) (Homo sapiens, UniProt Q86X55).
T1 construct: Flag-CARM1-His was eluted with 200 ug/ml FLAG peptide in buffer A; made in house; host or cells: HEK 293F cells infected with recombinant baculovirus (pFastBacMam)
T1 sequence (Q86X55 other isoform, or with tags, fused parts or gaps): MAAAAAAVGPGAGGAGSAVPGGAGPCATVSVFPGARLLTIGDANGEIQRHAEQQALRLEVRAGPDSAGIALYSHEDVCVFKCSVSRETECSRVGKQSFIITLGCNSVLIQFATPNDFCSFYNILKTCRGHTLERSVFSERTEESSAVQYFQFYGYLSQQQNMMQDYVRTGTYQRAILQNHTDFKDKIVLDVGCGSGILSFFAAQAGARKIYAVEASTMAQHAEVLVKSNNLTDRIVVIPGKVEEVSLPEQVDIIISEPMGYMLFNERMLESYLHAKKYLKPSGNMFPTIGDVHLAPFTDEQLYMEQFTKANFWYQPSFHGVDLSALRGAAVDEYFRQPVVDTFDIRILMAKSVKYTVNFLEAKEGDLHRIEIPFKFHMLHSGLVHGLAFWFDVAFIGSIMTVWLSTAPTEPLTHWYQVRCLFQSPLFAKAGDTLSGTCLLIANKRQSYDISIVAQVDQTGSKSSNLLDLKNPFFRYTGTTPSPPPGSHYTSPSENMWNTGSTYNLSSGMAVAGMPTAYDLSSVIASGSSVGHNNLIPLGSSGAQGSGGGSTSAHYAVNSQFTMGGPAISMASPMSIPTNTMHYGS
The experiment can be described thus: CARM1 enzyme assay on peptide substrate (3H-SAM Flashplate). It is filed as biochemical. The settings on record: CARM1 0.25 nM, 3H-SAM 30 nM, peptide 250 nM; read-out: Biochem IC50. A digest of the protocol: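 Flag-CARM1-His (isoform 1, Δ539-561; HEK293F-expressed), 0.25 nM, preincubated 30 min RT with compound, then 30 nM 3H-SAM and 250 nM biotinylated H3(16-30) R26me1 peptide in pH 7.6 Bicine buffer, 2% DMSO. Stopped with 300 uM cold SAM; streptavidin Flashplate capture, cpm. % inhibition vs DMSO/1 mM SAH, 3- or 4-parameter fit.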

pIC50: −log10 of the molar value.

What is called pIC50 is the IC50 on a negative log10 scale, so that one unit is a factor of ten.

As for `CNCC(O)COc1cc(Cl)cc(-c2cc(N(C)[C@H]3CCOC3)n3ncc(C(C)C)c3n2)c1` (some centres unmarked) [Example 41-6], the negative-log IC50 (pIC50) in experiment [1] is below 4.70; at Human CARM1 (PRMT4), above 7.00.

With `CNCC(O)COc1cccc(-c2nc(NCc3c(C)cc(C)[nH]c3=O)c3cnn(C4CC4)c3n2)c1` (centres unmarked) [Example 42-5], the pIC50 is below 4.70 in experiment [1] and 6.00 to 7.00 at Human CARM1 (PRMT4).

Consider `CNCC(O)COc1cccc(-c2nc(NCc3cn4ccsc4n3)c3cnn(C4CC4)c3n2)c1` (centres unmarked) [Example 43-5], for which the results for the pIC50 (in experiment [1]; on Human CARM1 (PRMT4)) were below 4.70 and above 7.00, respectively.

Take `CNCC(O)COc1cc(OC)cc(-c2cc(N3CC4CCC(C3)O4)n3ncc(C(C)C)c3n2)c1` (centres unmarked) [Example 43-6]: the pIC50 in experiment [1] was below 4.70; on Human CARM1 (PRMT4), 6.00 to 7.00.

Turning to `CNCC(O)COc1cccc(-c2nc(NCc3cn4cccc(C)c4n3)c3cnn(C4CC4)c3n2)c1` (centres unmarked) [Example 44-5], the pIC50 is 4.70 to 5.00 in experiment [1] and 6.00 to 7.00 at Human CARM1 (PRMT4).

As to `CNCC(O)COc1cc(Cl)cc(-c2cc(N3C4CCC3COC4)n3ncc(C(C)C)c3n2)c1` (centres unmarked) [Example 46-6], the pIC50 in experiment [1] was below 4.70; on Human CARM1 (PRMT4), above 7.00.

Consider `CNCC(O)COc1cc(Cl)cc(-c2cc(NC3CCOCC3)n3ncc(C(C)(C)C)c3n2)c1` (centres unmarked) [Example 48-6], for which the pIC50 in experiment [1] is below 4.70; at Human CARM1 (PRMT4), above 7.00.

Regarding `CNCC(O)COc1cc(OC)cc(-c2cc(N3CC4(CCOCC4)C3)n3ncc(C(C)C)c3n2)c1` (centres unmarked) [Example 49-6], the pIC50 in experiment [1] was below 4.70; on Human CARM1 (PRMT4), 6.00 to 7.00.

As for `CNCC(O)COc1cc(Cl)cc(-c2cc(N3CC4(CCOCC4)C3)n3ncc(C(C)C)c3n2)c1` (centres unmarked) [Example 50-6], the results for the pIC50 (in experiment [1]; at Human CARM1 (PRMT4)) were below 4.70 and above 7.00, respectively.

In the case of `CNCC(O)COc1cc(OC)cc(-c2cc(N3CC(CO)(CCl)C3)n3ncc(C(C)C)c3n2)c1` (centres unmarked) [Example 52-6], the pIC50 in experiment [1] is below 4.70; on Human CARM1 (PRMT4), above 7.00.

For `CNCC(O)COc1cc(Cl)cc(-c2cc(N3CC(CO)(CCl)C3)n3ncc(C(C)C)c3n2)c1` (centres unmarked) [Example 53-6], the pIC50 is below 4.70 in experiment [1] and above 7.00 at Human CARM1 (PRMT4).

For the compound `CNCC(O)COc1cccc(-c2cc(NCCCCCNC(=O)c3ccn(C)n3)c3cnn(C(C)C)c3n2)c1` (centres unmarked) [Example 64-1], the pIC50 was 4.70 to 5.00 in experiment [1] and 6.00 to 7.00 on Human CARM1 (PRMT4).

As to `CNCC(O)COc1cccc(-c2cc(NCCCCCCNC(=O)c3ccn(C)n3)c3cnn(C(C)C)c3n2)c1` (centres unmarked) [Example 66-1], the pIC50 in experiment [1] was below 4.70; at Human CARM1 (PRMT4), above 7.00.

Values taken from US20170283440A1, “CARM1 INHIBITORS AND USES THEREOF” (Epizyme, Inc., priority 2014, published 2017).
